Results: patent US20090029949A1, “GPCR Ligands Identified by Computational Modeling” (priority 2006, published 2009)

Assays:
S1P1 mutant F5.43G = target: T1, S1P1 mutant F5.43G (Homo sapiens, UniProt P21453, F205G); assay: [35S]GTPγS binding, S1P1 F5.43G; type: biochemical; conditions: S1P-induced, S1P1 F5.43G in RH7777 cells
T1 construct: expressed in transfected cells; host or cells: RH7777 (transient, pcDNA3.1)
Procedure: (§1) RH7777 and HEK-293 cells (ATCC, Manassas, Va.) were maintained in Dulbecco's modified minimal essential medium (DMEM) containing 10% fetal bovine serum (Hyclone, Logan, Utah). Cells (2×10^6) were transfected with 2 μg of plasmid DNA with Effectene (Qiagen, Valencia, Calif.) according to the manufacturer's instructions, for 24 h. Before ligand binding and receptor activation assays, the cells were washed twice with serum-free DMEM and serum-starved for at least 6 h.
(§2) S1P1 Receptor Activation Assays Receptor functional assays were performed in transiently transfected RH7777 cells by measuring S1P-activated [^35S]GTPγS binding as previously described (28).

S1P1 mutant T5.49S = target: T2, S1P1 mutant T5.49S (Homo sapiens, UniProt P21453, T211S); assay: [35S]GTPγS binding, S1P1 T5.49S; type: biochemical; conditions: S1P-induced, S1P1 T5.49S in RH7777 cells
T2 construct: expressed in transfected cells; host or cells: RH7777 (transient, pcDNA3.1)
T2 sequence (P21453 whole entry T211S): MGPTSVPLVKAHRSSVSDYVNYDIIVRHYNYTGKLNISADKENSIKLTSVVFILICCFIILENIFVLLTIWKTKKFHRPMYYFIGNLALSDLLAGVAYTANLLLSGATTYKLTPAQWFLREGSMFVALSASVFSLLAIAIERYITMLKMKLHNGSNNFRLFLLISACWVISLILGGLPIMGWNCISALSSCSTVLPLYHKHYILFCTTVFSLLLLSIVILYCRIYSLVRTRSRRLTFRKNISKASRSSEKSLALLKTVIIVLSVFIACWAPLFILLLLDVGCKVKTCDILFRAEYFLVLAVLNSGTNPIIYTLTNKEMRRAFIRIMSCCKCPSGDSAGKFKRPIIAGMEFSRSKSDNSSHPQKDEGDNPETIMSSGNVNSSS
Procedure: as §1, §2

S1P1 mutant K5.38A = target: T3, S1P1 mutant K5.38A (Homo sapiens, UniProt P21453, K200A); assay: [35S]GTPγS binding, S1P1 K5.38A; type: biochemical; conditions: S1P-induced, S1P1 K5.38A in RH7777 cells
T3 construct: expressed in transfected cells; host or cells: RH7777 (transient, pcDNA3.1)
T3 sequence (P21453 whole entry K200A): as the sequence (P21453 whole entry T211S) above, with K200A, S211T counted along it
Procedure: as §1, §2

S1P1 mutant I5.41A = target: T4, S1P1 mutant I5.41A (Homo sapiens, UniProt P21453, I203A); assay: [35S]GTPγS binding, S1P1 I5.41A; type: biochemical; conditions: S1P-induced, S1P1 I5.41A in RH7777 cells
T4 construct: expressed in transfected cells; host or cells: RH7777 (transient, pcDNA3.1)
T4 sequence (P21453 whole entry I203A): as the sequence (P21453 whole entry T211S) above, with I203A, S211T counted along it
Procedure: as §1, §2

S1P1 mutant T5.45S = target: T5, S1P1 mutant T5.45S (Homo sapiens, UniProt P21453, T207S); assay: [35S]GTPγS binding, S1P1 T5.45S; type: biochemical; conditions: S1P-induced, S1P1 T5.45S in RH7777 cells
T5 construct: expressed in transfected cells; host or cells: RH7777 (transient, pcDNA3.1)
T5 sequence (P21453 whole entry T207S): as the sequence (P21453 whole entry T211S) above, with T207S, S211T counted along it
Procedure: as §1, §2

S1P1 mutant V6.37L = target: T6, S1P1 mutant V6.37L (Homo sapiens, UniProt P21453, V258L); assay: [35S]GTPγS binding, S1P1 V6.37L; type: biochemical; conditions: S1P-induced, S1P1 V6.37L in RH7777 cells
T6 construct: expressed in transfected cells; host or cells: RH7777
T6 sequence (P21453 whole entry V258L): as the sequence (P21453 whole entry T211S) above, with S211T, V258L counted along it
Procedure: as §1, §2

S1P1 mutant F6.44Y = target: T7, S1P1 mutant F6.44Y (Homo sapiens, UniProt P21453, F265Y); assay: [35S]GTPγS binding, S1P1 F6.44Y; type: biochemical; conditions: S1P-induced, S1P1 F6.44Y in RH7777 cells
T7 construct: expressed in transfected cells; host or cells: RH7777
T7 sequence (P21453 whole entry F265Y): as the sequence (P21453 whole entry T211S) above, with S211T, F265Y counted along it
Procedure: as §1, §2

S1P1 mutant M3.32K = target: T8, S1P1 mutant M3.32K (Homo sapiens, UniProt P21453, M124K); assay: [35S]GTPγS binding, S1P1 M3.32K; type: biochemical; conditions: S1P-induced, S1P1 M3.32K in RH7777 cells
T8 construct: expressed in transfected cells; host or cells: RH7777
T8 sequence (P21453 whole entry M124K): as the sequence (P21453 whole entry T211S) above, with M124K, S211T counted along it
Procedure: as §1, §2

S1P1 mutant V6.40L [1] = target: T9, S1P1 mutant V6.40L (Homo sapiens, UniProt P21453, V261L); assay: [35S]GTPγS binding, S1P1 V6.40L; type: biochemical; conditions: S1P-induced, S1P1 V6.40L in RH7777 cells
T9 construct: expressed in transfected cells; host or cells: RH7777
T9 sequence (P21453 whole entry V261L): as the sequence (P21453 whole entry T211S) above, with S211T, V261L counted along it
Procedure: as §1, §2

S1P1 mutant L6.41G = target: T10, S1P1 mutant L6.41G (Homo sapiens, UniProt P21453, L262G); assay: [35S]GTPγS binding, S1P1 L6.41G; type: biochemical; conditions: S1P-induced, S1P1 L6.41G in RH7777 cells; mutant not detected at the cell surface
T10 construct: expressed in transfected cells; host or cells: RH7777
T10 sequence (P21453 whole entry L262G): as the sequence (P21453 whole entry T211S) above, with S211T, L262G counted along it
Procedure: as §1, §2

S1P1 mutant F5.48G = target: T11, S1P1 mutant F5.48G (Homo sapiens, UniProt P21453, F210G); assay: [35S]GTPγS binding, S1P1 F5.48G; type: biochemical; conditions: S1P-induced, S1P1 F5.48G in RH7777 cells
T11 construct: expressed in transfected cells
T11 sequence (P21453 whole entry F210G): as the sequence (P21453 whole entry T211S) above, with F210G, S211T counted along it
Procedure: as §1, §2

S1P1 mutant L5.52A = target: T12, S1P1 mutant L5.52A (Homo sapiens, UniProt P21453, L214A); assay: [35S]GTPγS binding, S1P1 L5.52A; type: biochemical; conditions: S1P-induced, S1P1 L5.52A in RH7777 cells
T12 construct: expressed in transfected cells; host or cells: RH7777
T12 sequence (P21453 whole entry L214A): as the sequence (P21453 whole entry T211S) above, with S211T, L214A counted along it
Procedure: as §1, §2

S1P1 mutant V6.40L [2] = target: T9, S1P1 mutant V6.40L; assay: [32P]S1P radioligand binding, RH7777 cells, V6.40L; conditions: radioligand 50 nM, S1P1 V6.40L
Procedure: as §1
(§3) The S1P binding assays were done essentially as previously described (28). Transfected RH7777 cells (5×10^5) were incubated at 4° C. in 20 mM Tris-HCl (pH 7.5) binding buffer containing 100 mM NaCl, 15 mM NaF, protease inhibitor cocktail (Sigma-Aldrich), and 0.2 mg/ml essentially fatty-acid free BSA with 1 nM [^32P]S1P in 50 nM S1P for 40 min. Cells were centrifuged and washed twice in binding buffer. The final pellet was resuspended in 2:1 CHCl3/MeOH and the suspension was equilibrated in scintillation fluid overnight. Cell-bound radioactivity was measured by liquid scintillation counting using a Beckman LS5000 TA counter (Beckman Coulter, Irvine, Calif.). Specific binding was defined as the difference between total binding and non-specific binding (in the presence of 2-5 μM cold S1P). Standard errors were computed on the basis of triplicate samples from two simultaneous transfections.

S1P1 mutant W6.48A = target: T13, S1P1 mutant W6.48A (Homo sapiens, UniProt P21453, W269A); assay: [32P]S1P radioligand binding, RH7777 cells, W6.48A; conditions: radioligand 50 nM, S1P1 W6.48A
T13 construct: expressed in transfected cells
T13 sequence (P21453 whole entry W269A): as the sequence (P21453 whole entry T211S) above, with S211T, W269A counted along it
Procedure: as §1, §3

S1P1 mutant L3.36E = S1P1 mutant L3.36E (Homo sapiens, UniProt P21453, L128E); assay: [32P]S1P competition binding, HEK-293 cells, L3.36E; design: expressed in transfected cells; conditions: S1P1 L3.36E
Sequence of S1P1 mutant L3.36E (P21453 whole entry L128E): as the sequence (P21453 whole entry T211S) above, with L128E, S211T counted along it
Procedure: For the competition assays, HEK-293 cells were used. Briefly, 4×10^5 cells were plated in 24-well dishes and allowed to adhere overnight. The cells were then transfected with 0.4 μg of the cDNA using Lipofectamine 2000 (Invitrogen) and the transfection proceeded for 48 h. After washing the cells twice with ice-cold binding buffer (20 mM Tris-HCl, pH 7.4 and 150 mM NaCl), 0.1 nM [^32P]S1P and competing concentrations of cold S1P (1 nM-10 μM), resuspended in binding buffer+4% BSA, were applied to the cells and incubated on ice for 30 min. After washing the cells twice with ice-cold binding buffer+0.4% BSA, the cells were lysed with 0.5% SDS and equilibrated in scintillation fluid. The samples were measured in triplicate.

WT S1P1 = WT S1P1 (Homo sapiens, UniProt P21453); assay: Ligand-induced [35S]GTPγS binding, WT S1P1; type: biochemical; design: expressed in transfected cells; host or cells: RH7777 (transient, pcDNA3.1); conditions: S1P-induced, WT-S1P1 in RH7777 cells
Sequence of WT S1P1 (P21453 whole entry): as the sequence (P21453 whole entry T211S) above, with S211T counted along it
Procedure: as §1, §2

T1 sequence (P21453 whole entry F205G): as the sequence (P21453 whole entry T211S) above, with F205G, S211T counted along it

- EC50 (S1P1 mutant F5.43G): 11.8 nM
- Emax (S1P1 mutant F5.43G; read-out: % WT Emax + s.d.): 70%
- EC50 (S1P1 mutant T5.49S): 6.6 nM
- Emax (S1P1 mutant T5.49S; read-out: % WT Emax + s.d.): 168%
- EC50 (S1P1 mutant K5.38A): 32.4 nM
- Emax (S1P1 mutant K5.38A; read-out: % WT Emax + s.d.): 97%
- EC50 (S1P1 mutant I5.41A): 157 nM
- Emax (S1P1 mutant I5.41A; read-out: % WT Emax + s.d.): 26%
- EC50 (S1P1 mutant T5.45S): 7.9 nM
- Emax (S1P1 mutant T5.45S; read-out: % WT Emax + s.d.): 28%
- EC50 (S1P1 mutant V6.37L): 37.6 nM
- Emax (S1P1 mutant V6.37L; read-out: % WT Emax + s.d.): 247%
- EC50 (S1P1 mutant F6.44Y): 3.7 ± 3.3 nM
- Emax (S1P1 mutant F6.44Y; read-out: % WT Emax + s.d.): 37%
- % WT Emax + s.d. (S1P1 mutant M3.32K): ∞
- EC50 + s.d. (S1P1 mutant M3.32K): ∞
- % WT Emax + s.d. (S1P1 mutant V6.40L [1]): ∞
- EC50 + s.d. (S1P1 mutant V6.40L [1]): ∞
- % WT Emax + s.d. (S1P1 mutant L6.41G): ∞
- EC50 + s.d. (S1P1 mutant L6.41G): ∞
- % WT Emax + s.d. (S1P1 mutant F5.48G): ∞
- EC50 + s.d. (S1P1 mutant F5.48G): ∞
- % WT Emax + s.d. (S1P1 mutant L5.52A): ∞
- EC50 + s.d. (S1P1 mutant L5.52A): ∞
- [32P]S1P binding relative to WT (S1P1 mutant V6.40L [2]): > 50 % of the WT
- [32P]S1P binding relative to WT (S1P1 mutant W6.48A): > 50 % of the WT
- Bmax (S1P1 mutant L3.36E): 1980 fmol
- Kd (S1P1 mutant L3.36E; competition with cold S1P, read-out: KD + s.d.): 27.8 nM
- % WT Emax + s.d. (WT S1P1): 100 + 9.13 % WT
- EC50 (WT S1P1): 1.4 ± 0.7 nM
Compound: CCCCCCCCCCCCC/C=C/[C@@H](O)[C@@H](N)COP(=O)(O)O [S1P, Sphingosine 1-phosphate]
